Experimental data: PMC7583830 (Molecules, 2020)
Entries after “also recorded” stand apart in the source; their conditions may differ. Blank lines part the entries; values can stand above or below the compound they belong to. Where a SMILES comes first, the peptide text is derived from it. Where no end group is shown, it is not given here. [ ]: non-standard residue; d: D form. The star is where a group is joined. DOTA = O=C(O)CN1CCN(CC(=O)O)CCN(CC(=O)*)CCN(CC(=O)O)CC1; NMeNle = CCCC[C@H](NC)C(=O)O

Tests used:
[1] = Distribution coefficient (logD) in octanol/PBS; assay type: physicochemical; details: octanol/PBS pH 7.4; read-out: logD
Procedure: The mixture was vigorously vortexed at room temperature over a period of 15 min using a small shaker (MS3 Basic, IKA, Staufen, Germany) with speed of 1500 rpm.

[2] = Metabolic stability in vivo and radiometabolites (radio-HPLC of blood, urine, liver, kidney); design: species or system BALB/c mice
Procedure: Metabolic biodistribution studies were performed in accordance with the ethical standards of the institution and approved by the Austrian Ministry of Science (BMWFW-66.011/0072-V/3b/2019). These studies were carried out in 5- to 7-week-old female BALB/c mice (n = 3) injected with [^177Lu]Lu-1 via a lateral tail vein. To allow monitoring of the metabolites by radio-HPLC, mice were injected with 30 MBq corresponding to 0.8 nmol total peptide. The mice were euthanized by cervical dislocation after different time points of 10 min, 30 min and 1 h p.i. and the urine and a venous blood sample were collected at the time of sacrifice. Liver and kidneys were dissected and homogenized in 20 mM HEPES buffer pH 7.3 at a ratio of 1:1 (v/v) with an Ultra-Turrax T8 homogenizer (IKA-Werke, Staufen, Germany) for 1 min at RT. Before radio-HPLC analysis, the samples (except urine) were treated with ACN at a ratio of 1:1 (v/v) to precipitate proteins, centrifuged at 2000× g for 2 min and diluted with water at a ratio of 1:1 (v/v). For HPLC analysis of the samples, the analytical HPLC system described above with a flow rate of 1 mL/min was used together with the following optimized water/ACN/0.1% TFA gradient to allow a better separation of [^177Lu]Lu-1 and the different radiometabolites: 0–7 min 1–7% ACN, 7–8 min 7–10% ACN, 8–18 min 10–18% ACN, 18–20 min 18–32% ACN, 20–27 min 32% ACN, 27–37 min […], 37–40 min 80% ACN, 40–40.1 min 80–1% ACN, 40.1–45 min 1% ACN. Urine was measured with the low-sensitivity loop of the radiodetector. The remaining samples were analyzed with the high-sensitivity loop due to the lower radioactivity present in blood, liver and kidney homogenate. To quantify the percentage of intact [^177Lu]Lu-1 and [^177Lu]Lu-M1 showing some overlap in the radiochromatogram when using the high-sensitivity loop of the radiodetector, the two radiopeptides were co-injected at different known ratios to enable a more accurate separation and integration of the two peaks (see supporting Figure S4). Mice from the metabolic biodistribution studies were subjected to a further dissection of all remaining tissues (blood, lung, heart, femur, spleen, muscle, intestine, pancreas and stomach). All organs, also including liver and kidneys, were weighed, and their radioactivity was measured in the gamma counter together with a standard and the residual body. To quantify the uptake of radioactivity in liver and kidneys, a part of liver and kidney homogenate was measured in the gamma counter to extrapolate the radioactivity for the whole organ.

[3] = Protein binding in human serum by size exclusion chromatography; assay type: in vitro ADME; details: 24 h incubation
Procedure: For protein binding assessment, the radiolabeled DOTA-peptides were incubated in fresh human serum at 37 °C (500 pmol/mL, n = 2). After 1, 4 and 24 h of incubation, two samples were taken for each time point and analyzed by Sephadex G-50 size-exclusion chromatography (GE Healthcare Illustra, Little Chalfont, UK). The percentage of protein binding was determined by measuring the column and the eluate with the gamma-counter.

[4] = Stability in fresh human serum (radio-HPLC); assay type: in vitro ADME; details: 24 h incubation, 37 °C
Procedure: In vitro stability studies for the characterization of the metabolic stability of the radiolabeled peptide analogs in human serum were carried out with [^177Lu]Lu-1, [^177Lu]Lu-M1, [^177Lu]Lu-M2, [^177Lu]Lu-M3 and [^177Lu]Lu-M4 (n = 2). Additional stability studies in rat liver and kidney homogenates were performed for [^177Lu]Lu-1 (n = 2). Tissue homogenates were prepared from dissected organs by homogenization for 1 min at RT (IKA-Werke, Staufen, Germany) in 20 mM HEPES buffer pH 7.3 (30% v/v). The radioligands were incubated in the different media at a concentration of 500 pmol/mL (corresponding to an activity of 6–11 MBq). After incubation at 37 °C at different time points for up to 24 h, a 100 µl sample was taken in duplicates and analyzed by HPLC. Samples obtained from human serum and rat homogenates were treated with ACN at a ratio of 1:1.5 (v/v) to precipitate proteins, centrifuged (14,000 rpm, 2 min, centrifuge 5424, Eppendorf AG, Germany) and diluted with water at a ratio of 1:1 (v/v). A 100 µl aliquot of this solution was injected into the radio HPLC system. The degradation of the radioligand was evaluated based on the radiochemical purity after radiolabeling and the percentage of intact radiopeptide observed during incubation in the different media.

[5] = system: neprylisin-1 and neprylisin-2; assay: Incubation in vitro with neprylisin-1 and neprylisin-2; details: cited from earlier work
[6] = system: A431-CCK2R xenografts; details: mouse, in vivo; cited from earlier work
[7] = design: method as in PMID 29896292; details: radiolabeled with different radiometals; cited from earlier work
[8] = design: method as in doi:10.2174/1874471010902040304; details: kidney homogenate; labeled with indium-111; cited from earlier work
[9] = fresh human serum; details: 37 °C, up to 24 h
[10] = soluble phase extracted from liver homogenate of BALB/c mice injected with [^177Lu]Lu-1; details: female BALB/c mice, up to 1 h p.i.
[11] = blood of BALB/c mice injected with [^177Lu]Lu-1; details: female BALB/c mice, up to 1 h p.i.
[12] = urine of BALB/c mice injected with [^177Lu]Lu-1; details: female BALB/c mice, up to 1 h p.i.
[13] = soluble phase extracted from kidney homogenate of BALB/c mice injected with [^177Lu]Lu-1; details: female BALB/c mice, up to 1 h p.i.
[14] = blood of patients injected with ^111In-labeled DOTA-MG11; details: up to 10 min after injection; cited from earlier work

logD [1]: -4.13 ± 0.11 | percentage of intact radiopeptide / radiometabolite ([2]; blood, 30 min p.i., mice injected i.v. with [177Lu]Lu-1): 17.0% | percentage of intact radiopeptide / radiometabolite ([2]; blood, 60 min p.i., mice injected i.v. with [177Lu]Lu-1): 20.4% | amount of radiometabolite ([2]; blood, different time points up to 1 h p.i.): < 21% | percentage of intact radiopeptide / radiometabolite ([2]; kidney, 30 min p.i.): 7.9% | percentage of intact radiopeptide / radiometabolite ([2]; liver, 30 min p.i.): 8.5% | percentage of intact radiopeptide / radiometabolite ([2]; liver, 60 min p.i.): 5.6% | percentage of intact radiopeptide / radiometabolite ([2]; urine, 30 min p.i.): 9.5% | percentage of intact radiopeptide / radiometabolite ([2]; urine, 60 min p.i.): 9.8% | fraction unbound [3]: 0.766 | intact radiopeptide [4]: 29.7 ± 0.8% | intact radiopeptide ([4]; listed as radiolabeled M3): less than 30%
Compound: CCCC[C@@H](C(=O)O)N(C)C(=O)[C@H](Cc1c[nH]c2ccccc12)NC(=O)CNC(=O)[C@H](Cc1ccc(O)cc1)NC(=O)[C@@H]1CCCN1C(=O)[C@@H](CCC(=O)O)NC(=O)CN1CCN(CC(=O)O)CCN(CC(=O)O)CCN(CC(=O)O)CC1 [[^177Lu]Lu-M3, metal not drawn] ({DOTA}-[dE]PYGW[NMeNle]-OH; C-terminus assumed)

Compound: DOTA-(DGlu)6-Ala-Tyr-Gly-Trp-Met-Asp-Phe-NH2
cleaved bond [5]: Asp-Phe

Compound: DOTA-(DGlu)6-Ala-Tyr-Gly-Trp-Met-Asp-Phe-NH2 (AYGWMDF; DOTA-(D-Glu)6 N-terminus, C-amide; radiolabel; printed: Ala-Tyr-Gly-Trp-Met-Asp-Phe-) [PP-F11]
tumor uptake [6]: ~ 6.7 % IA/g

Compound: DOTA-(DGlu)6-Ala-Tyr-Gly-Trp-Nle-Asp-Phe-NH2
not cleaved [5]: seemed to be resistant against neprylisins

Compound: DOTA-(DGlu)6-Ala-Tyr-Gly-Trp-Nle-Asp-Phe-NH2 [PP-F11N]
tumor uptake [6]: 6.9 % IA/g

Compound: DOTA-DGlu-Ala-Tyr-Gly-Trp-(N-Me)Nle-Asp-1Nal-NH2 [DOTA-MGS5]
tumor-to-kidney ratio [6]: 4–6 | cell uptake [7]: > 50%

Compound: DOTA-DGlu-Ala-Tyr-Gly-Trp-Met-Asp-Phe-NH2 ({DOTA}-[dE]AYGWMDF-NH2; also: 111In complex) [DOTA-MG11, truncated MG analog, results quoted for the indium-111 labeled form]
time to complete degradation [8]: ≤ 10 min

not cleaved [9]: 98.1 ± 0.3% after 24 h incubation
Compound: DOTA-DGlu-Pro-Tyr-Gly-Trp-(N-Me)Nle-Asp

Compound: DOTA-DGlu-Pro-Tyr-Gly-Trp-(N-Me)Nle-Asp-1Nal-NH2
cleaved bond [10]: 1Nal-NH2 and Asp-1Nal and (N-Me)Nle-Asp and Trp-(N-Me)Nle, minor and Gly-Trp and Tyr-Gly | not cleaved [10]: M8 not found in any of the tissues examined | cleaved bond [11]: 1Nal-NH2, minor and Asp-1Nal, minor and (N-Me)Nle-Asp, minor and Gly-Trp, minor | not cleaved [11]: M8 not found in any of the tissues examined | not cleaved [9]: 96.2 ± 1.3% intact peptide after 24 h incubation | cleaved bond [12]: 1Nal-NH2, minor and Asp-1Nal, major and (N-Me)Nle-Asp and Gly-Trp, major | not cleaved [12]: M8 not found in any of the tissues examined | cleaved bond [13]: 1Nal-NH2 and Asp-1Nal and (N-Me)Nle-Asp and Gly-Trp and Tyr-Gly and Pro-Tyr, minor, 60 min | not cleaved [13]: M8 not found in any of the tissues examined

Compound: {DOTA}-[dE]AYGWMDF-NH2
cleaved bond [5]: Asp-Phe; also recorded: Gly-Trp | fragment found [14]: DOTA-DGlu-Ala-Tyr, 10 min after injection

not cleaved [9]: 98.4 ± 0.01% after 24 h incubation
Compound: {DOTA}-[dE]PYGW
